Values after ≈ are worked out from the molar mass of the structure shown. Read-outs that look alike come from different tables or passages of the source.
Experiment: Approximate solubility of pomalidomide at 50°C in 96 solvent compositions (LC)
Format: physicochemical
Settings: organic solvent or mixture, thermodynamic from solid
Experimental: Pomalidomide Solid Form Preparations: Preparation of solid form of pomalidomide was conducted by equilibrating pomalidomide in 96 solvent compositions at 50°C and subjected to four conditions: slurry, evaporation, cooling, and precipitation. […] Solvents were then added, as binary gradients consisting of main solvent and co-solvent, to give a total of 150 µl, in each of the 96 vials (see Table 6 for the exact composition of each vial). […] For each of the evaporation, precipitation, and cooling experiments, approximately 8 mg of a solid sample of pomalidomide (e.g., Form A) was delivered to each position of the plate. Solvents were added to the master plate, as binary gradients consisting of main solvent and co-solvent, to give a total volume of 800 µT in each of the 96 vials (see Table 7 for the exact composition of each vial). The master plate, containing pomalidomide and solvents, was then equilibrated by stirring for 2 hours at 50°C. Upon completion of the equilibration cycle, the supernatant was aspirated into a four-tipped needle assembly and transferred to a sealed parallel filtration assembly. The mixtures were forced through the filtration assembly using positive pressure and the filtrates were collected in an array of glass vials. The filtered solutions were subsequently aspirated into the four-tipped assembly and aliquots were dispensed to an array of glass vials for subsequent LC analysis to determine approximate concentrations of pomalidomide in each solvent composition at the beginning of the experiments (Table 8). Both the four-tipped needle assembly and filtration assembly were maintained at the equilibration temperature of 50°C throughout the entire transfer process.
The results correspond to the solvent systems described in Table 7, equilibrated at 50°C for 2 hours. […] The approximate concentrations were determined by LC.

Work on `Nc1cccc2c1C(=O)N(C1CCC(=O)NC1=O)C2=O` (stereo not drawn) [Pomalidomide, 4-amino-2-(2,6-dioxopiperidine-3-yl)isoindoline-1,3-dione] yielded a solubility at 2 h (binary solvent composition (main solvent and co-solvent), 50 °C, solvent system D12 of Table 7, read-out: Approximate Measured Solubility) of 670 µg/mL (≈ 2450 µM), a solubility at 2 h (binary solvent mixture (main solvent and co-solvent), 50 °C, solvent system D9 of Table 7, read-out: Approximate Measured Solubility) of 1630 µg/mL (≈ 5970 µM) and a solubility at 2 h (binary solvent mixture (main solvent and co-solvent), 50 °C, solvent system E1 of Table 7, read-out: Approximate Measured Solubility) of 1600 µg/mL (≈ 5860 µM). For the same compound, the solubility at 2 h (binary solvent mixture (main solvent and co-solvent), 50 °C, solvent system E2 of Table 7, read-out: Approximate Measured Solubility) was 690 µg/mL (≈ 2530 µM), the solubility at 2 h (binary solvent mixture (main solvent and co-solvent), 50 °C, solvent system E3 of Table 7, read-out: Approximate Measured Solubility) was 320 µg/mL (≈ 1170 µM) and the solubility at 2 h (binary solvent mixture (main solvent and co-solvent), 50 °C, solvent system E4 of Table 7, read-out: Approximate Measured Solubility) was 130 µg/mL (≈ 476 µM). The solubility at 2 h (binary solvent mixture (main solvent and co-solvent), 50 °C, solvent system E5 of Table 7, read-out: Approximate Measured Solubility) was 20 µg/mL (≈ 73.2 µM), the solubility at 2 h (binary solvent mixture (main solvent and co-solvent), 50 °C, solvent system E7 of Table 7, read-out: Approximate Measured Solubility) was 20 µg/mL (≈ 73.2 µM) and the solubility at 2 h (binary solvent mixture (main solvent and co-solvent), 50 °C, solvent system E8 of Table 7, read-out: Approximate Measured Solubility) was 730 µg/mL (≈ 2670 µM). It also gave a solubility at 2 h (binary solvent mixture (main solvent and co-solvent), 50 °C, solvent system E9 of Table 7, read-out: Approximate Measured Solubility) of 1630 µg/mL (≈ 5970 µM), a solubility at 2 h (binary solvent mixture (main solvent and co-solvent), 50 °C, solvent system E10 of Table 7, read-out: Approximate Measured Solubility) of 2310 µg/mL (≈ 8450 µM) and a solubility at 2 h (binary solvent mixture (main solvent and co-solvent), 50 °C, solvent system E11 of Table 7, read-out: Approximate Measured Solubility) of 2480 µg/mL (≈ 9080 µM). It also gave a solubility at 2 h (binary solvent mixture (main solvent and co-solvent), 50 °C, solvent system E12 of Table 7, read-out: Approximate Measured Solubility) of 950 µg/mL (≈ 3480 µM), a solubility at 2 h (binary solvent mixture (main solvent and co-solvent), 50 °C, solvent system F1 of Table 7, read-out: Approximate Measured Solubility) of 100 µg/mL (≈ 366 µM) and a solubility at 2 h (binary solvent mixture (main solvent and co-solvent), 50 °C, solvent system F2 of Table 7, read-out: Approximate Measured Solubility) of 60 µg/mL (≈ 220 µM). For the same compound, the solubility at 2 h (binary solvent mixture (main solvent and co-solvent), 50 °C, solvent system F3 of Table 7, read-out: Approximate Measured Solubility) was 30 µg/mL (≈ 110 µM), the solubility at 2 h (binary solvent mixture (main solvent and co-solvent), 50 °C, solvent system F4 of Table 7, read-out: Approximate Measured Solubility) was 10 µg/mL (≈ 36.6 µM) and the solubility at 2 h (binary solvent mixture (main solvent and co-solvent), 50 °C, solvent system F7 of Table 7, read-out: Approximate Measured Solubility) was 40 µg/mL (≈ 146 µM). For the same compound, the solubility at 2 h (binary solvent mixture (main solvent and co-solvent), 50 °C, solvent system F8 of Table 7, read-out: Approximate Measured Solubility) was 40 µg/mL (≈ 146 µM), the solubility at 2 h (binary solvent mixture (main solvent and co-solvent), 50 °C, solvent system F9 of Table 7, read-out: Approximate Measured Solubility) was 130 µg/mL (≈ 476 µM) and the solubility at 2 h (binary solvent mixture (main solvent and co-solvent), 50 °C, solvent system F12 of Table 7, read-out: Approximate Measured Solubility) was 550 µg/mL (≈ 2010 µM). For the same compound, the solubility at 2 h (binary solvent mixture (main solvent and co-solvent), 50 °C, solvent system G1 of Table 7, read-out: Approximate Measured Solubility) was 2690 µg/mL (≈ 9840 µM), the solubility at 2 h (binary solvent mixture (main solvent and co-solvent), 50 °C, solvent system G2 of Table 7, read-out: Approximate Measured Solubility) was 1650 µg/mL (≈ 6040 µM) and the solubility at 2 h (binary solvent mixture (main solvent and co-solvent), 50 °C, solvent system G3 of Table 7, read-out: Approximate Measured Solubility) was 700 µg/mL (≈ 2560 µM). The solubility at 2 h (binary solvent mixture (main solvent and co-solvent), 50 °C, solvent system G4 of Table 7, read-out: Approximate Measured Solubility) was 230 µg/mL (≈ 842 µM), the solubility at 2 h (binary solvent mixture (main solvent and co-solvent), 50 °C, solvent system G5 of Table 7, read-out: Approximate Measured Solubility) was 60 µg/mL (≈ 220 µM) and the solubility at 2 h (binary solvent mixture (main solvent and co-solvent), 50 °C, solvent system G7 of Table 7, read-out: Approximate Measured Solubility) was 30 µg/mL (≈ 110 µM). The solubility at 2 h (binary solvent mixture (main solvent and co-solvent), 50 °C, solvent system G8 of Table 7, read-out: Approximate Measured Solubility) was 410 µg/mL (≈ 1500 µM), the solubility at 2 h (binary solvent mixture (main solvent and co-solvent), 50 °C, solvent system G9 of Table 7, read-out: Approximate Measured Solubility) was 650 µg/mL (≈ 2380 µM) and the solubility at 2 h (binary solvent mixture (main solvent and co-solvent), 50 °C, solvent system G10 of Table 7, read-out: Approximate Measured Solubility) was 2310 µg/mL (≈ 8450 µM). For the same compound, the solubility at 2 h (binary solvent mixture (main solvent and co-solvent), 50 °C, solvent system G11 of Table 7, read-out: Approximate Measured Solubility) was 5180 µg/mL (≈ 19000 µM), the solubility at 2 h (binary solvent mixture (main solvent and co-solvent), 50 °C, solvent system G12 of Table 7, read-out: Approximate Measured Solubility) was 5990 µg/mL (≈ 21900 µM) and the solubility at 2 h (binary solvent mixture (main solvent and co-solvent), 50 °C, solvent system H1 of Table 7, read-out: Approximate Measured Solubility) was 380 µg/mL (≈ 1390 µM). For the same compound, the solubility at 2 h (binary solvent mixture (main solvent and co-solvent), 50 °C, solvent system H2 of Table 7, read-out: Approximate Measured Solubility) was 240 µg/mL (≈ 878 µM), the solubility at 2 h (binary solvent mixture (main solvent and co-solvent), 50 °C, solvent system H3 of Table 7, read-out: Approximate Measured Solubility) was 110 µg/mL (≈ 403 µM) and the solubility at 2 h (binary solvent mixture (main solvent and co-solvent), 50 °C, solvent system H4 of Table 7, read-out: Approximate Measured Solubility) was 40 µg/mL (≈ 146 µM). It also gave a solubility at 2 h (binary solvent mixture (main solvent and co-solvent), 50 °C, solvent system H7 of Table 7, read-out: Approximate Measured Solubility) of 50 µg/mL (≈ 183 µM), a solubility at 2 h (binary solvent mixture (main solvent and co-solvent), 50 °C, solvent system H8 of Table 7, read-out: Approximate Measured Solubility) of 400 µg/mL (≈ 1460 µM) and a solubility at 2 h (binary solvent mixture (main solvent and co-solvent), 50 °C, solvent system H10 of Table 7, read-out: Approximate Measured Solubility) of 1500 µg/mL (≈ 5490 µM). The solubility at 2 h (binary solvent mixture (main solvent and co-solvent), 50 °C, solvent system H11 of Table 7, read-out: Approximate Measured Solubility) was 1960 µg/mL (≈ 7170 µM), the solubility at 2 h (binary solvent mixture (main solvent and co-solvent), 50 °C, solvent system H12 of Table 7, read-out: Approximate Measured Solubility) was 2060 µg/mL (≈ 7540 µM) and the solubility at 2 h (solvent system H9 of Table 7, read-out: Approximate Measured Solubility) was 860 µg/mL (≈ 3150 µM). The solubility at 2 h (solvent system A1 of Table 7, 50 °C, solvent system A1 of Table 7, read-out: Approximate Measured Solubility) was 2240 µg/mL (≈ 8200 µM), the solubility at 2 h (solvent system A2 of Table 7, 50 °C, solvent system A2 of Table 7, read-out: Approximate Measured Solubility) was 8190 µg/mL (≈ 30000 µM) and the solubility at 2 h (solvent system A3 of Table 7, 50 °C, solvent system A3 of Table 7, read-out: Approximate Measured Solubility) was 2430 µg/mL (≈ 8890 µM). For the same compound, the solubility at 2 h (solvent system A10 of Table 7, 50 °C, solvent system A10 of Table 7, read-out: Approximate Measured Solubility) was 1830 µg/mL (≈ 6700 µM), the solubility at 2 h (solvent system A11 of Table 7, 50 °C, solvent system A11 of Table 7, read-out: Approximate Measured Solubility) was 290 µg/mL (≈ 1060 µM) and the solubility at 2 h (solvent system A12 of Table 7, 50 °C, solvent system A12 of Table 7, read-out: Approximate Measured Solubility) was 80 µg/mL (≈ 293 µM).

Source: patent EP2815749A1, “Solid form of 4-amino-2-(2,6-dioxopiperidine-3-yl)isoindoline-1,3-dione having specified X-ray diffraction pattern” (IP Gesellschaft für Management mbH, priority 2013, dated 2014)
